Reference: patent publication US20220241354A1, “COMPOSITION” (MORINAGA MILK INDUSTRY CO., LTD., priority 2019, published 2022)

Key:
[1] = tested on: Bifidobacterium breve M-16V; assay: Growth promoting effect on Bifidobacterium breve M-16V (turbidity at 600 nm after anaerobic culture); format: cell-based; details: 2′-FL 1.000 mass %, lactoferrin 0.000 mg/mL; glucose-free MRS, 37° C., 24 hours, n = 4
Protocol: (§1) DifcoMRS (BD) was dissolved in purified water as described in a package insert and sterilized at 115° C. for 15 minutes. L-Cysteine hydrochloride (Wako) was dissolved in purified water, filtered and sterilized, and was aseptically added to MRS medium cooled to room temperature after sterilization to have a final concentration of 0.05% by mass.
as §1, with “A reagent” for “DifcoMRS (BD)”, “with the composition shown” for “as described”, “Table 1” for “a package insert”
Human milk oligosaccharide (2′-fucosyllactose (2′-FL) (Carbosynth)) and lactoferrin (produced by Morinaga Milk Industry Co., Ltd., iron content 15.8 mg/100 g) were dissolved in purified water, respectively. They were filtered and sterilized after dissolution.
150 μL of a pre-culture solution of Bifidobacterium breve M-16V was added to 3 mL of MRS medium prepared in (1) (i), and was anaerobically cultured at 37° C. for 16 hours. […]
(§2) Then, the cells were anaerobically cultured at 37° C. for 24 hours. After culturing, turbidity was measured at a wavelength of 600 nm using a microplate reader (Corona Electric) to evaluate the growth of bifidobacteria.

[2] = tested on: Bifidobacterium infantis M-63; assay: Growth promoting effect on Bifidobacterium infantis M-63 (turbidity at 600 nm); format: cell-based; details: 2′-FL 1.000 mass %, lactoferrin 0.000 mg/mL; 37° C., 24 hours, n = 12
Protocol: 150 μL of a pre-culture solution of Bifidobacterium breve M-16V was added to 3 mL of MRS medium prepared in (1) (i), and was anaerobically cultured at 37° C. for 16 hours. After culturing, the cells were separated from the culture solution by centrifuging at 1500×g for 5 minutes. The culture solution was removed, and the cells were resuspended in 3 mL of glucose-free MRS medium prepared in (1) (ii).
The pre-culture solution prepared in (2) was added to the glucose-free MRS medium prepared in (1) (ii) to have a final concentration of 1 v/v %. Further, the 2′-fucosyllactose (2′-FL) solution and the lactoferrin solution prepared in (1) (iii) were respectively added to have the final concentrations shown in Table 2, and were dispensed into a 96-well plate at 200 μL/well.
as §2
The same operation as in Example 1 was carried out except that the bifidobacteria were replaced with Bifidobacterium infantis M-63, and the growth was evaluated.

2′-fucosyllactose [2′-FL]
OD600 [1]: 0.076 | OD600 [2]: 0.440
